In patent publication US20080280996A1, “Use of Carophyllenes in the Manufacture of Medicaments and Treatment of Bodily Conditions of Inflammation and Inflammatory Pain” (priority 2004, published 2008):

How the values were obtained:
Assay type in all cases: in vivo
COX-2 = assay: Expression of enzyme COX-2 in carrageenin-injected rat paw (Western blot); conditions: 50 mg/kg orally 60 minutes before carrageenin 300 μg/paw, subcutaneous paw tissue
Method: The expression of enzymes COX-2 and iNOS were determined by Western blot according to the methodology described by Medeiros et. al. in the publication Circ Res. 28:1375-1382, 2004. Male 160-180 g rats were orally given 50 mg/kg of trans-caryophyllene. Animals treated with 0.9% (0.1 ml/10 g) saline were used as control. Another group of animals was treated with 0.5 mg/kg dexamethasone, subcutaneously, 4 hours before the test, and used as positive control. After 60 minutes, the animals received intraplantar injections of 100 μl of carrageenin (300 μg/paw) and were sacrificed after 180 minutes, and subcutaneous paw tissue was removed […] after the carrageenin injection. […] The protein concentration was determined by the Bradford method (BioRad Laboratories Inc. kit, Milan, Italy). […] The bands thus obtained were quantified using a chemoluminescence kit and densitometry analysis (relative units) in radiographic films. Graph 10 below (each result represents the average of 5 animals, and the vertical bars the mean standard error deviation) compares inhibition of expression of the COX2 enzymes, obtained by the administration of alpha-humulene and trans-caryophyllene, when evaluated in the subcutaneous tissue or the paw injected with carrageenin, compared to the expression of COX2 induced by carrageenin obtained by treatment with dexomethasone.

PAF-induced oedema = assay: Platelet aggregation factor (PAF) oedema in mouse paw; conditions: mice, PAF 3 nmol/paw intraplantar; 50 mg/kg orally 1 h before; 30 to 120 min
Method: The test used below is described by Cunha et. al. in the publication Life Sci. 70:159-169, 2001. Male 25 g-35 g mice were slightly sedated with ether and were injected 50 μl saline containing platelet aggregation factor (PAF, 3 nmol/paw), intraplantar, in the right paw. The left paw received the same volume of saline and was taken as negative control. The swelling was measured with a plethysmometer (manufacturer: Ugo Basile, Italy) along various time intervals after the injection of the phlogistic agent. The difference between the volumes of the right and the left paw were quantified (in ml) and taken as an index of oedema. One hour before the test the animals were systemically treated (orally) with 50 mg/kg of alpha-humulene or trans-caryophyllene. Graph 5 below compares the inhibition of the volume of the oedema by administration of alpha-humulene (SA) and trans-caryophyllene (5B). Oedema volume measurement time intervals were 30, 45, 60, and 120 min. Each point represents the average of 5 animals, and the vertical bars the mean standard deviation.

[1] = system: bradykinin-induced paw oedema; assay: Bradykinin oedema in mouse paw; conditions: mice, bradykinin 3 nmol/paw intraplantar, captopril pre-treatment; 50 mg/kg orally 1 h before; 10 min to 48 h
Method: The test used below is described by Cunha et. al. in the publication Life Sci. 70:159-169, 2001. Male 25 g-35 g mice were slightly sedated with ether and were injected 50 μl saline containing bradykinin (BK, 3 nmol/paw), intraplantar, in the right paw. The left paw received the same volume of saline and was taken as negative control. The swelling was measured with a plethysmometer (manufacturer: Ugo Basile, Italy) along various time points intervals after the injection of the phlogistic agent. The difference between the volumes of the right and the left paw were quantified (in ml) and taken as an index of oedema. One hour before the test the animals were systemically treated (orally) with 50 mg/kg of alpha-humulene or with trans-caryophyllene. The animals were pre-treated with 5 mg/kg of captopril, injected subcutaneously, 1 hour before the test, in order to avoid degradation of […]. Graphs 3A and 3B below compare the inhibition of the volume of the oedema by administration of alpha-humulene (3A) or trans-caryophyllene (3B). Oedema volume measurement time intervals were 10, 20, 30, 60, and 120 min, 24 h and 48 h. Each point represents the average of 5 animals, and the vertical bars the mean standard error deviation.

[2] = system: arachidonic acid ear oedema; assay: Arachidonic acid oedema in mouse ear; conditions: mice, arachidonic acid 2 mg/ear; topical ointment 0.025 to 0.2% caryophyllene applied 60 minutes before
Method: The ear oedema in the test below was measured according to Calixto et. al. in the publication Prostaglandins, 5: 515-526, 1991, with minor modifications. Male 25 g-35 g mice, in a first group, were topically applied, in the inner surface of the ears, an ointment comprising a range from 0.025 to 0.2% alpha-humulene or trans-caryophyllene. In the positive control group, the animals were topically applied 0.05 mg of phenidone per ear. After 60 minutes, the animals received 20 μl of arachidonic acid (2 mg/ear), dissolved in acetone, in the inner surface of the right ear. The oedema was measured using a digital micrometer, and the responses were expressed as μm, the difference between the ear thickness before and after the application of arachidonic acid. The responses of the animals treated with caryophyllenes were compared to those observed in the control group animals, treated with base ointment. Graphs 6A and 6B below compare the inhibition of the volume of the oedema by topic administration of alpha-humulene (6A) and trans-caryophyllene (6B). Oedema volume measurement was performed after application of 0.025%, 0.05%, 0.1, and 0.2% caryophyllene content ointment, compared to the oedema volume caused by the application of phenidone and arachidonic acid (C). Each point represents the average of 5 animals, and the vertical bars the mean standard error deviation.

## C/C1=C\CC/C(C)=C/CC(C)(C)/C=C/C1 [alpha-humulene]
COX-2
  expression of enzymes COX2 induced by carrageenin in the paws of rats: markedly inhibited the expression
PAF-induced oedema
  PAF-induced oedema formation: markedly reduced PAF-induced oedema formation
[1]
  bradykinin-induced paw oedema: markedly reduced bradykinin-induced paw oedema
[2]
  arachidonic acid ear oedema formation: markedly reduced oedema formation, in a dose-dependent manner

## C=C1CC/C=C(\C)CC[C@@H]2[C@@H]1CC2(C)C [trans-caryophyllene]
COX-2
  expression of enzymes COX2 induced by carrageenin in the paws of rats: markedly inhibited the expression
PAF-induced oedema
  PAF-induced oedema formation: markedly reduced PAF-induced oedema formation
[1]
  bradykinin-induced paw oedema: markedly reduced bradykinin-induced paw oedema
[2]
  arachidonic acid ear oedema formation: markedly reduced oedema formation, in a dose-dependent manner
